Our source for the DC50 values is patent publication US20260306640A1, “TECHNOLOGIES TARGETING CELL STATES” (Auron Therapeutics, Inc., priority 2023, published 2026).

For orientation: DC50 means the concentration giving 50% degradation.

For this test, the target named is KAT2A (Homo sapiens, UniProt Q92830). The experiment in a line: KAT2A degradation, Western Blot (Jess), MOLM-13 cells. In kind it is cell-based. More on the design: degrader, Western blot. Particulars: MOLM-13 cells, KAT2A, 24 h, Western Blot, vs DMSO; read-out: KAT2A MOLM-13 DC50. The procedure: MOLM-13 cells or NCI-H1048 cells were used for Western Blot analysis of KAT2A degradation. KAT2B degradation can be measured in a similar manner with NCI-H1048 cells.
KAT2A, sequence (Q92830 whole entry): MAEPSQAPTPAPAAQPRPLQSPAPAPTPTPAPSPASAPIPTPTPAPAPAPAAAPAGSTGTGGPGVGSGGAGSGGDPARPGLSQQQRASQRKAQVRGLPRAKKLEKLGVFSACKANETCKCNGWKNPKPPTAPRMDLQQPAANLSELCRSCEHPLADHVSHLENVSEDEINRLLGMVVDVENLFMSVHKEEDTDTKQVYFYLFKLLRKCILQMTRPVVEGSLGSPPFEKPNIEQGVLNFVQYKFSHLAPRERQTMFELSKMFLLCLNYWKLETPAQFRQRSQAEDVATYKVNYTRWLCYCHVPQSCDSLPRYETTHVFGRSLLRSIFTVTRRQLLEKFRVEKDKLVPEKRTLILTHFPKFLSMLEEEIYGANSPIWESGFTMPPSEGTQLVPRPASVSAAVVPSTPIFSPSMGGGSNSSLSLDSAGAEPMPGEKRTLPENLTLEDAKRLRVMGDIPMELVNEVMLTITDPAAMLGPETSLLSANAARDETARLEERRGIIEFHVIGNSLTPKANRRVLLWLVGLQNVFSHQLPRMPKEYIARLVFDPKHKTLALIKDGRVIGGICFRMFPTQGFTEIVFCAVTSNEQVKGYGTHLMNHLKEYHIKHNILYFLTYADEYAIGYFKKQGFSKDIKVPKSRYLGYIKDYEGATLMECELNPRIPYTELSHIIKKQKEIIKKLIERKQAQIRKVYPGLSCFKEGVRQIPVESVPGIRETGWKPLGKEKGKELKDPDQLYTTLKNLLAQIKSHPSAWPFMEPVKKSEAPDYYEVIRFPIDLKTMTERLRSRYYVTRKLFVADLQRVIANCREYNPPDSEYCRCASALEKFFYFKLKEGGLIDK
MOLM-13 cells were maintained at 37° C. in 5% CO2 and 90% humidity in RPMI 1640 supplemented with 20% fetal bovine serum (FBS) and 1× penicillin/streptomycin. Cells were plated in full media at 1-2 million cells/2 mL in a 6-well tissue culture treated plate with or without compounds for 24 h at 37° C. in 5% CO2.
MOLM-13 cells or NCI-H1048 cells were washed with PBS, then lysed with RIPA buffer containing 1×protease and phosphatase inhibitors (SantaCruz Biotechnologies Cat #sc-24948A). Protein was isolated by centrifugation at 12,000×g for 10 minutes at 4° C. and supernatant was collected. Protein was quantified via Bradford assay. Samples were diluted to 4 μg lysate in 16 μL RIPA buffer and then 4 μL of Jess Sample Buffer. Samples were heated at 95° C. for 5 minutes. Samples were loaded onto 12-230 kDa Jess™ Separation Module, 8×25 capillary cartridges (SM-W004, Biotechne). Antibodies loaded were: Primary antibody for KAT2A (GCN5L2 (C26A10) Rabbit mAb (3305, CST)) and for KAT2B (PCAF (C14G9)) Rabbit mAb (3378, CST) at 1:1000 and Anti-Rabbit Detection Module for Jess™ (Cat No #DM-001, Biotechne). Signal was detected by chemiluminescence.
DC50 values were determined from percent reduction of protein as compared to the DMSO control.
In general terms: In western blotting, separated proteins are transferred to a membrane and probed.
For the compound `CN1C[C@H](Nc2ccn(C)c(=O)c2Br)C[C@H](c2ccc(CN3CCC(c4ccc5c(c4)CN(C4CCC(=O)NC4=O)C5=O)CC3)cc2)C1` (stereo partly shown) [Compound 68], the DC50 was less than 1 nM.
With `CN1C[C@H](Nc2cnn(C)c(=O)c2Br)C[C@H](c2ccc(CN3CCN(c4ccc(C5CCC(=O)NC5=O)cc4)CC3)cc2)C1` (stereo partly shown) [Compound 69] the figure was less than 1 nM.
With `CN1C[C@H](Nc2cnn(C)c(=O)c2Cl)C[C@H](c2ccc(CN3CCC(c4ccc5c(c4)CN(C4CCC(=O)NC4=O)C5=O)CC3)cc2)C1` (stereo partly shown) [Compound 70] the figure was less than 1 nM; with `CN1C[C@H](Nc2cnn(C)c(=O)c2Br)C[C@H](c2ccc(C(=O)N3CCN(Cc4ccc5c(c4)CN(C4CCC(=O)NC4=O)C5=O)CC3)cc2)C1` (stereo partly shown) [Compound 71], less than 1 nM.
With `CN1C[C@H](Nc2cnn(C)c(=O)c2Br)C[C@H](c2ccc(C(=O)N3CCC(c4ccc5c(c4)CN(C4CCC(=O)NC4=O)C5=O)CC3)cc2)C1` (stereo partly shown) [Compound 73] the figure was 1 to 30 nM; with `CN1C[C@H](Nc2cnn(C)c(=O)c2Br)C[C@H](c2ccc(CN3CCN(Cc4ccc5c(c4)CN(C4CCC(=O)NC4=O)C5=O)CC3)cc2)C1` (stereo partly shown) [Compound 74], less than 1 nM.
Regarding `CN1C[C@H](Nc2cnn(C)c(=O)c2Cl)C[C@H](c2ccc(CN3CCN(Cc4ccc5c(c4)CN(C4CCC(=O)NC4=O)C5=O)CC3)cc2)C1` (stereo partly shown) [Compound 75], the DC50 lay within 1 to 30 nM.
For the compound `CN1C[C@H](Nc2cnn(C)c(=O)c2Cl)C[C@H](c2ccc(C(=O)N3CCN(Cc4ccc5c(c4)CN(C4CCC(=O)NC4=O)C5=O)CC3)cc2)C1` (stereo partly shown) [Compound 76], the DC50 is 1 to 30 nM.
Consider `CN1C[C@H](Nc2cnn(C)c(=O)c2Cl)C[C@H](c2ccc(C(=O)N3CCC(c4ccc5c(c4)CN(C4CCC(=O)NC4=O)C5=O)CC3)cc2)C1` (stereo partly shown) [Compound 77], for which the DC50 fell in the range of 1 to 30 nM.
As for `CN1C[C@H](Nc2cnn(C)c(=O)c2Br)C[C@H](c2ccc(CN3CCN(c4ccc(N5CCC(=O)NC5=O)cc4)CC3)cc2)C1` [Compound 78], the DC50 is more than 30 nM.
For the compound `CN1C[C@H](Nc2cnn(C)c(=O)c2Br)C[C@H](c2ccc(C(=O)N3CCN(Cc4cccc5c4CN(C4CCC(=O)NC4=O)C5=O)CC3)cc2)C1` (stereo partly shown) [Compound 79], the DC50 was 1 to 30 nM.
To `CN1C[C@H](Nc2cnn(C)c(=O)c2Br)C[C@H](c2ccc(C(=O)N3CCN(Cc4ccc(C5CCC(=O)NC5=O)cc4)CC3)cc2)C1` (stereo partly shown) [Compound 80] belongs less than 1 nM.
With `CN1C[C@H](Nc2cnn(C)c(=O)c2Br)C[C@H](c2ccc(C(=O)N3CCC(c4ccc(C5CCC(=O)NC5=O)cc4)CC3)cc2)C1` (stereo partly shown) [Compound 81] the figure was 1 to 30 nM; with `CN1C[C@H](Nc2cnn(C)c(=O)c2Br)C[C@H](c2ccc(C(=O)N3CCC4(CCN(c5ccc(C6CCC(=O)NC6=O)cc5)C4)C3)cc2)C1` (stereo partly shown) [Compound 82], less than 1 nM; with `CN1C[C@H](Nc2cnn(C)c(=O)c2Br)C[C@H](c2ccc(C(=O)N3CCC(c4cccc5c4CN(C4CCC(=O)NC4=O)C5=O)CC3)cc2)C1` (stereo partly shown) [Compound 83], 1 to 30 nM.
To `CN1C[C@H](Nc2cnn(C)c(=O)c2)C[C@H](c2ccc(CN3CCC(c4ccc5c(c4)CN(C4CCC(=O)NC4=O)C5=O)CC3)cc2)C1` (stereo partly shown) [Compound 85] belongs more than 30 nM; to `CN1C[C@H](Nc2cnn(C)c(=O)c2Br)C[C@H](c2ccc(CN3CCC(c4ccc(C5CCC(=O)NC5=O)cc4)CC3)cc2)C1` (stereo partly shown) [Compound 87], 1 to 30 nM; to `CN1C[C@H](Nc2cnn(C)c(=O)c2Br)C[C@H](c2ccc(CN3CCC4(CC3)CCN(c3ccc(C5CCC(=O)NC5=O)cc3)CC4)cc2)C1` (stereo partly shown) [Compound 88], less than 1 nM.
Consider `CN1C[C@H](Nc2cnn(C)c(=O)c2Br)C[C@H](c2ccc(CN3CCC4(CCN(c5ccc(C6CCC(=O)NC6=O)cc5)C4)C3)cc2)C1` (stereo partly shown) [Compound 89], for which the DC50 is less than 1 nM.
With `CN1C[C@H](Nc2cnn(C)c(=O)c2Cl)C[C@H](c2ccc(C(=O)N3CCC(c4cccc5c4CN(C4CCC(=O)NC4=O)C5=O)CC3)cc2)C1` (stereo partly shown) [Compound 91], the DC50 was more than 30 nM.
As to `CN1C[C@H](Nc2cnn(C)c(=O)c2Br)C[C@H](c2ccc(CN3CCC(c4cccc5c4CN(C4CCC(=O)NC4=O)C5=O)CC3)cc2)C1` (stereo partly shown) [Compound 92], the DC50 fell in the range of 1 to 30 nM.
Take `CN1C[C@H](Nc2cnn(C)c(=O)c2Br)C[C@H](c2ccc(C(=O)N3CC(Oc4ccc5c(c4)CN(C4CCC(=O)NC4=O)C5=O)C3)cc2)C1` (stereo partly shown) [Compound 93]: the DC50 was less than 1 nM.
For `CN1C[C@H](Nc2cnn(C)c(=O)c2Cl)C[C@H](c2ccc(CN3CCC(c4cccc5c4CN(C4CCC(=O)NC4=O)C5=O)CC3)cc2)C1` (stereo partly shown) [Compound 94], the DC50 is more than 30 nM.
For `CN1C[C@H](Nc2cnn(C)c(=O)c2Br)C[C@H](c2ccc(CN3CC(Oc4ccc5c(c4)C(=O)N(C4CCC(=O)NC4=O)C5=O)C3)cc2)C1` (stereo partly shown) [Compound 95], the DC50 is less than 1 nM.
Turning to `CN1C[C@H](Nc2cnn(C)c(=O)c2Br)C[C@H](c2ccc(C(=O)N3CCC(N4CCN(c5ccc6c(c5)C(=O)N(C5CCC(=O)NC5=O)C6=O)CC4)CC3)cc2)C1` (stereo partly shown) [Compound 96], the DC50 was less than 1 nM.
Turning to `CN1C[C@H](Nc2cnn(C)c(=O)c2Br)C[C@H](c2ccc(C(=O)N3CCC4(CC3)CN(c3ccc5c(c3)C(=O)N(C3CCC(=O)NC3=O)C5=O)C4)cc2)C1` (stereo partly shown) [Compound 97], the DC50 is less than 1 nM.
Consider `CN1C[C@H](Nc2cnn(C)c(=O)c2Br)C[C@H](c2ccc(C(=O)N3CCC4(CCN(c5ccc6c(c5)C(=O)N(C5CCC(=O)NC5=O)C6=O)C4)C3)cc2)C1` (stereo partly shown) [Compound 98], for which the DC50 is 1 to 30 nM.
`CN1C[C@H](Nc2cnn(C)c(=O)c2Br)C[C@H](c2ccc(CN3CCN(Oc4cccc5c4CN(C4CCC(=O)NC4=O)C5=O)CC3)cc2)C1` (stereo partly shown) [Compound 99]: the DC50 was less than 1 nM.
With `CN1C[C@H](Nc2cnn(C)c(=O)c2Br)C[C@H](c2ccc(C(=O)N3CCN(Cc4cccc(C5CCC(=O)NC5=O)c4)CC3)cc2)C1` (stereo partly shown) [Compound 100], the DC50 was less than 1 nM.
With `CN1C[C@H](Nc2cnn(C)c(=O)c2Br)C[C@H](c2ccc(CN3CCN(c4cccc(N5CCC(=O)NC5=O)c4)CC3)cc2)C1` [Compound 101] the figure was 1 to 30 nM.
On to `CN1C[C@H](Nc2cnn(C)c(=O)c2Br)C[C@H](c2ccc(C(=O)N3CCN(Cc4ccc(N5CCC(=O)NC5=O)cc4)CC3)cc2)C1` [Compound 102], for which the DC50 is more than 30 nM.
To `CN1C[C@H](Nc2cnn(C)c(=O)c2Br)C[C@H](c2ccc(CNC3CN(c4ccc(C5CCC(=O)NC5=O)cc4)C3)cc2)C1` (stereo partly shown) [Compound 103] belongs less than 1 nM; to `CN1C[C@H](Nc2cnn(C)c(=O)c2Cl)C[C@H](c2ccc(CN3CCN(c4ccc(C5CCC(=O)NC5=O)cc4)CC3)cc2)C1` (stereo partly shown) [Compound 104], 1 to 30 nM.
To `CN1C[C@H](Nc2ccn(C)c(=O)c2Cl)C[C@H](c2ccc(COc3ccc4c(c3)C(=O)N(C3CCC(=O)NC3=O)C4=O)cc2)C1` (stereo partly shown) [Compound 105] belongs 1 to 30 nM; to `CN1C[C@H](Nc2cnn(C)c(=O)c2Br)C[C@H](c2ccc(CNc3ccc4c(c3)C(=O)N(C3CCC(=O)NC3=O)C4=O)cc2)C1` (stereo partly shown) [Compound 106], less than 1 nM; to `CN1C[C@H](Nc2cnn(C)c(=O)c2Br)C[C@H](c2ccc(C(=O)N3CCC(CN4CCC(c5ccc6c(c5)C(=O)N(C5CCC(=O)NC5=O)C6=O)CC4)CC3)cc2)C1` (stereo partly shown) [Compound 107], less than 1 nM.
On to `CN1C[C@H](Nc2cnn(C)c(=O)c2Br)C[C@H](c2ccc(CN3CCC4(CC3)CN(c3ccc5c(c3)C(=O)N(C3CCC(=O)NC3=O)C5=O)C4)cc2)C1` (stereo partly shown) [Compound 108], for which the DC50 is less than 1 nM.
